Reference: the OligoGym collection
Values joined by “and” are separate entries in the source; they are usually repeats but may differ in a detail not shown here. Equal entries are not always repeated. After the bases stand the sugars from the 5' end (letter, count) and the backbone: PS all phosphorothioate, else s phosphorothioate and o phosphodiester by linkage. Methylation of C is not given here. e = 2'-O-(2-methoxyethyl) (MOE); k = constrained ethyl (cEt); d = 2'-deoxy (DNA)

Target: SOD1
Conditions: ASO

Work on “AGGTCATTGAAACAGAC (sugars e3 k2 d7 k2 e3, PS)” yielded a target mRNA inhibition (HepG2, 3 µM) of 21%.

Work on “AGTGAGGACCTGCACTG (sugars e3 k2 d7 k2 e3, PS)” yielded a target mRNA inhibition (HepG2, 3 µM) of 21%.

For “AGTGTTTAATGTTTATC (sugars ekekddddddddeeeee, linkages s1 o2 s9 o2 s2)”, the target mRNA inhibition (A431, 0.062 µM) was 24%, the target mRNA inhibition (A431, 0.185 µM) was 37% and the target mRNA inhibition (A431, 0.556 µM) was 57%. It also gave a target mRNA inhibition (A431, 1.667 µM) of 77%, a target mRNA inhibition (A431, 5 µM) of 81% and a target mRNA inhibition (A431, 15 µM) of 86%. For the same sequence, the target mRNA inhibition (SH-SY5Y, 0.062 µM) was 3%, the target mRNA inhibition (SH-SY5Y, 0.185 µM) was 6% and the target mRNA inhibition (SH-SY5Y, 0.556 µM) was 48%. It also gave a target mRNA inhibition (SH-SY5Y, 1.667 µM) of 69%, a target mRNA inhibition (SH-SY5Y, 5 µM) of 77% and a target mRNA inhibition (SH-SY5Y, 15 µM) of 87%.

Work on “AGTGTTTAATGTTTATC (sugars ekekddddddddkekee, linkages s1 o2 s9 o2 s2)” yielded a target mRNA inhibition (A431, 0.062 µM) of 52%, a target mRNA inhibition (A431, 0.185 µM) of 68% and a target mRNA inhibition (A431, 0.556 µM) of 79%. The target mRNA inhibition (A431, 1.667 µM) was 88%, the target mRNA inhibition (A431, 5 µM) was 89% and the target mRNA inhibition (A431, 15 µM) was 91%. For the same sequence, the target mRNA inhibition (SH-SY5Y, 0.062 µM) was 38%, the target mRNA inhibition (SH-SY5Y, 0.185 µM) was 49% and the target mRNA inhibition (SH-SY5Y, 0.556 µM) was 61%. The target mRNA inhibition (SH-SY5Y, 1.667 µM) was 83%, the target mRNA inhibition (SH-SY5Y, 5 µM) was 81% and the target mRNA inhibition (SH-SY5Y, 15 µM) was 84%.

In the case of “AGTGTTTAATGTTTATCAGG (sugars e5 d10 e5, linkages s1 o3 s11 o3 s1)”, the target mRNA inhibition (A431, 0.12 µM) is reported as 16%, the target mRNA inhibition (A431, 0.6 µM) is reported as 49% and the target mRNA inhibition (A431, 3 µM) is reported as 60%. It also gave a target mRNA inhibition (A431, 15 µM) of 75%, a target mRNA inhibition (HepG2, 0.222 µM) of 28% and a target mRNA inhibition (HepG2, 0.667 µM) of 55%. It also gave a target mRNA inhibition (HepG2, 2 µM) of 89% and a target mRNA inhibition (HepG2, 6 µM) of 80%.

“ATAATAAGTGCCATACA (sugars e2 k2 d9 k2 e2, PS)” showed a target mRNA inhibition (HepG2, 5 µM) of 27%.

For “ATACAGGTCATTGAAAC (sugars e2 k2 d8 k2 e3, PS)”, the target mRNA inhibition (HepG2, 5 µM) was 33%.

“ATCTTCAATAGACACATCGG (sugars e5 d10 e5, PS)” was tested, and the target mRNA inhibition (HepG2, 5 µM) was 16% and 0%.

In the case of “ATGCAATGGTCTCCTGAGAG (sugars e5 d10 e5, PS)”, the target mRNA inhibition (HepG2, 5 µM) is reported as 0%.

Sequence “ATGCTTCCCCACACCTT (sugars e3 k2 d7 k2 e3, PS)” has a target mRNA inhibition (HepG2, 3 µM) of 41%.

Work on “ATGTTTATCAGGATACA (sugars e2 k2 d8 k2 e3, PS)” yielded a target mRNA inhibition (HepG2, 0.1875 µM) of 40%, a target mRNA inhibition (HepG2, 0.75 µM) of 75% and a target mRNA inhibition (HepG2, 3 µM) of 92%. For the same sequence, the target mRNA inhibition (HepG2, 4 µM) was 85% and 86% and the target mRNA inhibition (HepG2, 12 µM) was 95% and 98%.

With “ATGTTTATCAGGATACA (sugars e2 k2 d8 k2 e3, linkages s1 o2 s9 o2 s2)” the target mRNA inhibition (A431, 0.12 µM) was 2%, the target mRNA inhibition (A431, 0.6 µM) was 4% and the target mRNA inhibition (A431, 3 µM) was 12%. For the same sequence, the target mRNA inhibition (A431, 15 µM) was 52%, the target mRNA inhibition (HepG2, 0.222 µM) was 53% and the target mRNA inhibition (HepG2, 0.667 µM) was 73%. The target mRNA inhibition (HepG2, 2 µM) was 89% and the target mRNA inhibition (HepG2, 6 µM) was 90%.

For “ATGTTTATCAGGATACA (sugars e2 k2 d9 k2 e2, linkages s1 o3 s9 o1 s2)”, the target mRNA inhibition (A431, 0.12 µM) was 1%, the target mRNA inhibition (A431, 0.6 µM) was 4% and the target mRNA inhibition (A431, 3 µM) was 21%. For the same sequence, the target mRNA inhibition (A431, 15 µM) was 29%, the target mRNA inhibition (HepG2, 0.222 µM) was 47% and the target mRNA inhibition (HepG2, 0.667 µM) was 71%. For the same sequence, the target mRNA inhibition (HepG2, 2 µM) was 92% and the target mRNA inhibition (HepG2, 6 µM) was 82%.

Sequence “ATTACACCACAAGCCAA (sugars e2 k2 d8 k2 e3, PS)” has a target mRNA inhibition (HepG2, 4 µM) of 46%.

Sequence “ATTACACCACAAGCCAA (sugars e2 k2 d9 k2 e2, PS)” has a target mRNA inhibition (HepG2, 4 µM) of 63%.

“ATTACAGTGTTTAATGT (sugars e3 k2 d7 k2 e3, PS)” was tested, and the target mRNA inhibition (HepG2, 3 µM) was 24%.

“ATTCACAGGCTTGAATG (sugars e2 k2 d8 k2 e3, PS)” gave a target mRNA inhibition (HepG2, 5 µM) of 19%.

“ATTCTGACAAGTTTAAT (sugars e3 k2 d7 k2 e3, PS)” was tested, and the target mRNA inhibition (HepG2, 3 µM) was 9%.

Sequence “ATTGAAACAGACATTTT (sugars e3 k2 d7 k2 e3, PS)” has a target mRNA inhibition (HepG2, 3 µM) of 22%.

With “ATTGGGCGATCCCAATT (sugars e2 k2 d8 k2 e3, PS)” the target mRNA inhibition (HepG2, 4 µM) was 2%.

“ATTGGGCGATCCCAATT (sugars e2 k2 d9 k2 e2, PS)” gave a target mRNA inhibition (HepG2, 4 µM) of 23%.

For “ATTGGGCGATCCCAATT (sugars e3 k2 d7 k2 e3, PS)”, the target mRNA inhibition (HepG2, 3 µM) was 19%.

Sequence “ATTTCCACCTTTGCCCA (sugars e3 k2 d7 k2 e3, PS)” has a target mRNA inhibition (HepG2, 3 µM) of 63%.

In the case of “ATTTCCACCTTTGCCCAAGT (sugars e5 d10 e5, PS)”, the target mRNA inhibition (HepG2, 4 µM) is reported as 56% and the target mRNA inhibition (HepG2, 12 µM) is reported as 84%.

“ATTTCTACAGCTAGCAG (sugars e2 k2 d8 k2 e3, PS)” gave a target mRNA inhibition (HepG2, 4 µM) of 66%.

For “CAAAATACAGGTCATTG (sugars e3 k2 d7 k2 e3, PS)”, the target mRNA inhibition (HepG2, 3 µM) was 23%.

For “CAAACCAGCACCCCGTCTCC (sugars e5 d10 e5, PS)”, the target mRNA inhibition (HepG2, 4 µM) was 13%.

“CAACATGCCTCTCTTCA (sugars e3 k2 d7 k2 e3, PS)” showed a target mRNA inhibition (HepG2, 3 µM) of 3%.
